Reference: patent publication US20130316958A1 (University of Southern California, priority 2010, published 2013)

Key:
[1] = test system: NIH3T3 cells; assay: GFP-LC3 autophagy with ectopic FLIP expression; format: cell-based; settings: Hank's solution 4 hr or 2 μM rapamycin 3 hr
Experimental: At 12-16 hours post-transfection with GFP-LC3, NIH3T3 cells containing vector or the FLIP gene were treated with Hank's solution for 4 hr or with 2 μM rapamycin for 3 hr. Subsequently, GFP-LC3 was detected using an inverted fluorescence microscope, autophagy was quantified as means (±SD) of the combined results from three independent experiments, and autophagosomes were visualized through scanning electron microscopy. NIH3T3-Vector, NIH3T3-KSHV-vFLIP, and NIH3T3-MCV-159L cells were treated with Hank's solution for 4 hr, followed by immunoblotting with anti-LC3 and anti-βTubulin. At 12-16 hr post-transfection with GFP-LC3, TREX-BCBL-Vector and TREX-BCBL-vFLIP cells were treated with doxycycline for 24 hr, followed by incubation with 2 μM rapamycin for an additional 12 hr. The detection of GFP-LC3 and autophagy levels was performed as described above, vFLIP expression was detected by IB with anti-Flag, and autophagosomes were visualized by scanning EM. TNF-induced apoptosis and NF-κB luciferase assay were performed as previously described (Matta and Chaudhary (2004) Proc. Natl. Acad. Sci. USA 101:9399-9404).
The anti-autophagic properties of vFLIP, as well as the related cFLIP, HSV, and MCV, were evaluated by ectopic expression of HVS, vFLIP, MCV 159L, and the short form of cFLIP (cFLIPs) in NIHI3T3 cells. DNA fragments corresponding to the coding sequences of the KSHV-vFLIP, human cFLIPs, MCV-MC159, and HVS-vFLIP genes were amplified via polymerase chain reaction and subcloned into pcDNA5/FRT/TO between the AflII and BamHI restriction sites or pEF-IRES-puro between the AflII and XbaI sites. Starvation studies were carried out by transfecting cells containing vector or the FLIP gene with GFP-LC3, then 12-16 h post-transfection, treating the cells with Hank's solution for 4 hr or with 2 μM rapamycin for 3 hr. Autophagy was assessed by GFP-LC3 redistribution using an inverted fluorescence microscope, quantifying autophagy as means (±SD) of the combined results from three independent experiments. Autophagosomes were visualized through scanning electron microscopy. […]

[2] = test system: TREX-BCBL cells; assay: vFLIP expression in KSHV-infected BCBL1 cells: autophagy, growth suppression and death; format: cell-based
Experimental: To investigate whether vFLIP expression suppresses autophagy in virus-infected cells, a KSHV-infected BCBL1 cell line was constructed (TREX-BCBL) in which a Flag-tagged KSHV-vFLIP gene was integrated into the chromosomal DNA under the control of a tetracycline-inducible promoter. (Nakamura et al. (2003) J. Virol. 77:4205-4220). At 12-16 hr post-transfection with GFP-LC3, TREX-BCBL-Vector and TREX-BCBL-vFLIP cells were treated with Doxycycline for 24 hr, followed by incubation with 2 μM rapamycin for an additional 12 hr. The detection of GFP-LC3 and autophagy levels was performed as described above, vFLIP expression was detected by IB with anti-Flag, and autophagosomes were visualized by scanning EM (scale bar=50 nm). Treatment of these cells with doxycycline strongly activated Flag-vFLIP expression.
The effect of vFLIP on autophagy was tested in a KSHV-infected BCBL1 cell line. TREX-BCBL-Vector and TREX-BCBL-vFLIP cells were treated with rapamycin or left untreated for 6 days in the presence of doxycycline and subjected to scanning EM, to examine the morphologies of over 100 dead cells and quantify cell death for apoptosis and autophagic death, or subjected to PI staining and cell cycle analysis.
All siRNAs were produced by Dharmacon Research. siRNAs specific for human Beclin1 (5′[…]3′) and a nonspecific scrambled control siRNA were transfected using DharmaFect reagent (Dharmacon) according to the manufacturer's instructions. At 48-72 hr post-transfection, cells were analyzed for autophagy. Trypan blue staining and a Beckman Coulter Z2 Particle Count and Size analyzer were used to determine cell death (as a percentage) at day 5.

With “KSHV vFLIP: viral FLICE-like inhibitor protein of Kaposi's sarcoma-associated herpesvirus, expressed in cells” the “suppression of starvation- and rapamycin-induced autophagy” value [1] was “strongly suppressed starvation- and rapamycin-induced autophagy”, the “block of rapamycin-induced autophagy and cell death” value ([2]; TREX-BCBL-vFLIP cells) was “readily blocked rapamycin-induced autophagy and cell death” and the “inhibition of peptide-induced autophagy and cell death” value ([2]; TREX-BCBL-vFLIP cells) was “minimal”. The “suppression of rapamycin-induced autophagy in TREX-BCBL cells” value ([2]; doxycycline 24 hr, 2 μM rapamycin 12 hr) was “extensively suppressed rapamycin-induced autophagy” and the “block of rapamycin- or zVAD-induced growth suppression and autophagic death” value ([2]; ectopic expression in BCBL1 cells) was “almost completely blocked”.
